22 molecules from patent US20090099195A1 (ASTRAZENECA AB, priority 2007, published 2009) can be followed below.

One may read the IC50 as the concentration that inhibits the measured activity by half.

In the test the target is T1, hP2X3 (human Purinergic P2X receptors subtype 3), clone B (Homo sapiens, UniProt P56373).
T1 sequence (P56373 1-397): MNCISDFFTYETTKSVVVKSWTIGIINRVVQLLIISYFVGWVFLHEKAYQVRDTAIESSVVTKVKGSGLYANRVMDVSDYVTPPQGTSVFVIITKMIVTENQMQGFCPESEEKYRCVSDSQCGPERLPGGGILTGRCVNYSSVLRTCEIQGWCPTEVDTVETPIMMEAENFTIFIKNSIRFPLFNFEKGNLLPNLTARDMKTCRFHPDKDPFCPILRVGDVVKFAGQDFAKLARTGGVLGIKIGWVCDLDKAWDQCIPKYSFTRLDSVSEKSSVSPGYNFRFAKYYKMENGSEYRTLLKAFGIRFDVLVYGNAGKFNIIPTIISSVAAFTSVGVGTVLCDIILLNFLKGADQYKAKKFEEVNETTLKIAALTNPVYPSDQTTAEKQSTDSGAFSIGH
Kind of test: hP2X3 FLIPR calcium (Fluo-4) antagonist assay, clone B. The conditions noted are these: Human P2X3 FLIPR Clone B IC50 (nM), RLE cells expressing hP2X3 clone B (NM_002559); agonist 500 nM α,β-methylene-ATP.
For the molecule `CC(=O)N(C)C1CCN(c2nc(NC(C)(C)Cc3ccc(Cl)cc3)c3c(n2)C(=O)N(C(C)C)C3)C1` (stereo not shown) [Example 67, N-[1-(4-{[2-(4-chlorophenyl)-1,1-dimethylethyl]amino}-6-isopropyl-7-oxo-6,7-dihydro-5H-pyrrolo[3,4-d]pyrimidin-2-yl)pyrrolidin-3-yl]-N-methylacetamide], the half-maximal inhibitory concentration (IC50) worked out at 450 nM.

Consider `CC(=O)N1CCN(c2nc3c(c(N(Cc4cc5ccccc5cn4)CC(F)(F)F)n2)CN(C(C)C)C3=O)CC1` [Example 264, 2-(4-acetylpiperazin-1-yl)-6-isopropyl-4-((isoquinolin-3-ylmethyl)(2,2,2-trifluoroethyl)amino)-5H-pyrrolo[3,4-d]pyrimidin-7(6H)-one], for which the IC50 came to 2900 nM.

`CC(=O)N1CCN(c2nc(NC(C)c3ccc(CC(C)C)cc3)c3c(n2)C(=O)N(C(C)C)C3)CC1` (stereo not shown) [Example 6, 2-(4-acetylpiperazin-1-yl)-4-{[1-(4-isobutylphenyl)ethyl]amino}-6-isopropyl-5,6-dihydro-7H-pyrrolo[3,4-d]pyrimidin-7-one]: the IC50 amounted to 160 nM.

For the molecule `CC(C)N1Cc2c(Nc3ccc(Cc4ccccc4)cc3)nc(N3CCOCC3)nc2C1=O` [Example 37, 4-[(4-benzylphenyl)amino]-6-isopropyl-2-morpholin-4-yl-5,6-dihydro-7H-pyrrolo[3,4-d]pyrimidin-7-one], the IC50 is over 30000 nM.

As for `CC(=O)N1CCN(c2nc3c(c(N(C)Cc4ccc5ccccc5n4)n2)CN(C(C)C)C3=O)CC1` [Example 249, 2-(4-acetylpiperazin-1-yl)-6-isopropyl-4-(methyl(quinolin-2-ylmethyl)amino)-5H-pyrrolo[3,4-d]pyrimidin-7(6H)-one], the IC50 came out at 6000 nM.

Take `CC(C)N1Cc2c(NCc3cnc4ccccc4c3)nc(N3CCN(C)C(=O)C3)nc2C1=O` [Example 210, 6-isopropyl-2-(4-methyl-3-oxopiperazin-1-yl)-4-(quinolin-3-ylmethylamino)-5H-pyrrolo[3,4-d]pyrimidin-7(6H)-one]: the IC50 turned out to be 320 nM.

In the case of `CC(C)N1Cc2c(NC(c3ccc(F)cc3)c3ccc(F)cc3)nc(N(C)CCN(C)C)nc2C1=O` [Example 24, 4-{[bis(4-fluorophenyl)methyl]amino}-2-[[2-(dimethylamino)ethyl](methyl)amino]-6-isopropyl-5,6-dihydro-7H-pyrrolo[3,4-d]pyrimidin-7-one], the IC50 was 190 nM.

Turning to `CC(C)N1Cc2c(NC(C)(C)Cc3ccc(Cl)cc3)nc(NCCCN3CCCC3=O)nc2C1=O` [Example 66, 4-{[2-(4-chlorophenyl)-1,1-dimethylethyl]amino}-6-isopropyl-2-{[3-(2-oxopyrrolidin-1-yl)propyl]amino}-5,6-dihydro-7H-pyrrolo[3,4-d]pyrimidin-7-one], the IC50 was found to be 1400 nM.

As for `CC(=O)N1CCN(c2nc(NC(Cc3ccccc3)c3ccccc3)c3c(n2)C(=O)N(C(C)C)C3)CC1` (stereo not shown) [Example 88, 2-(4-Acetyl-piperazin-1-yl)-4-(1,2-diphenyl-ethylamino)-6-isopropyl-5,6-dihydro-pyrrolo[3,4-d]pyrimidin-7-one], the IC50 was determined as 1800 nM.

Turning to `COc1cccc([C@@H](C)Nc2nc(N3CCN(C(C)=O)CC3)nc3c2CN(C(C)C)C3=O)c1` [Example 227, (R)-2-(4-acetylpiperazin-1-yl)-6-isopropyl-4-(1-(3-methoxyphenyl)ethylamino)-5H-pyrrolo[3,4-d]pyrimidin-7(6H)-one], the IC50 came out at 8500 nM.

On to `CC(=O)N1CCN(c2nc(NCc3cnc4ccccc4c3)c3c(n2)C(=O)N(C(C)C)C3)C[C@H]1C` [Example 328, (R)-2-(4-acetyl-3-methylpiperazin-1-yl)-6-isopropyl-4-(quinolin-3-ylmethylamino)-5H-pyrrolo[3,4-d]pyrimidin-7(6H)-one], for which the IC50 was 62 nM.

Regarding `COCCNc1nc(NC(c2ccccc2)c2ccc(C)cc2)c2c(n1)C(=O)N(C(C)C)C2` (stereo not shown) [Example 98, 6-isopropyl-2-(2-methoxy-ethylamino)-4-[(phenyl-p-tolyl-methyl)-amino]-5,6-dihydro-pyrrolo[3,4-d]-pyrimidin-7-one], the IC50 was determined as 210 nM.

On to `CCN(CC)c1nc(NC(c2ccccc2)c2ccccc2)c2c(n1)C(=O)N(C(C)C)C2` [Example 89, 4-(Benzhydryl-amino)-2-diethylamino-6-isopropyl-5,6-dihydro-pyrrolo[3,4-d]pyrimidin-7-one], for which the half-inhibitory concentration (IC50) turned out to be 6200 nM.

For `CCOc1ccc(CN(CC2CC2)c2nc(N3CCN(C(C)=O)CC3)nc3c2CN(C(C)C)C3=O)cc1` [Example 162, 2-(4-acetylpiperazin-1-yl)-4-((cyclopropylmethyl)(4-ethoxybenzyl)amino)-6-isopropyl-5H-pyrrolo[3,4-d]pyrimidin-7(6H)-one], the IC50 is 950 nM.

For `CC(C)N1Cc2c(NC(c3ccccc3)c3ccc(Cl)cc3)nc(N3CCOCC3)nc2C1=O` (stereo not shown) [Example 77, 4-{[(4-Chloro-phenyl)-phenyl-methyl]-amino}-6-isopropyl-2-morpholin-4-yl-5,6-dihydro-pyrrolo[3,4-d]pyrimidin-7-one], the IC50 was determined as 260 nM.

As to `CC(=O)N1CCN(c2nc3c(c(N4CCCC4c4ccc5ncccc5c4)n2)CN(C(C)C)C3=O)CC1` (single isomer, unassigned) [Example 284, 4-(4-acetylpiperazin-1-yl)-8-propan-2-yl-2-(2-quinolin-6-ylpyrrolidin-1-yl)-3,5,8-triazabicyclo[4.3.0]nona-1,3,5-trien-7-one], the IC50 stood at 9900 nM.

With `CC(C)N1Cc2c(nc(N3CCNC(=O)C3)nc2N2CCCC2Cc2ccc(Cl)cc2)C1=O` (stereo not shown) [Example 49, 4-[2-(4-chlorobenzyl)pyrrolidin-1-yl]-6-isopropyl-2-(3-oxopiperazin-1-yl)-5,6-dihydro-7H-pyrrolo[3,4-d]pyrimidin-7-one], the IC50 turned out to be 2000 nM.

Regarding `COc1ccccc1CC1CCCN1c1nc(N2CCN(C(C)=O)CC2)nc2c1CN(C(C)C)C2=O` (stereo not shown) [Example 290, 2-(4-acetylpiperazin-1-yl)-6-isopropyl-4-[2-[(2-methoxyphenyl)methyl]pyrrolidin-1-yl]-5H-pyrrolo[3,4-d]pyrimidin-7-one], the IC50 was 2000 nM.

For `CC(=O)N1CCN(c2nc3c(c(N(Cc4ccccc4)Cc4ccc(Cl)cc4)n2)CN(C(C)C)C3=O)CC1` [Example 58, 2-(4-acetylpiperazin-1-yl)-4-[benzyl(4-chlorobenzyl)amino]-6-isopropyl-5,6-dihydro-7H-pyrrolo[3,4-d]pyrimidin-7-one], the IC50 is 270 nM.

As for `CCN1CCN(c2nc(NC(c3ccccc3)c3ccc(C)cc3)c3c(n2)C(=O)N(C(C)C)C3)CC1` (stereo not shown) [Example 101, 2-(4-Ethyl-piperazin-1-yl)-6-isopropyl-4-[(phenyl-p-tolyl-methyl)-amino]-5,6-dihydro-pyrrolo[3,4-d]-pyrimidin-7-one], the IC50 was found to be 150 nM.

Turning to `CCC(Nc1nc(N2CCN(C(C)=O)CC2)nc2c1CN(C(C)C)C2=O)c1ccc(C(F)(F)F)cc1` (stereo not shown) [Example 32, 2-(4-acetylpiperazin-1-yl)-6-isopropyl-4-({1-[4-(trifluoromethyl)phenyl]propyl}amino)-5,6-dihydro-7H-pyrrolo[3,4-d]pyrimidin-7-one], the concentration for half-maximal inhibition (IC50) was determined as 430 nM.

In the case of `CCN1CCN(c2nc(NC3c4cccnc4CCc4c(F)cccc43)c3c(n2)C(=O)N(C(C)C)C3)CC1` (stereo not shown) [Example 120, 2-(4-ethylpiperazin-1-yl)-4-[(9-fluoro-10,11-dihydro-5H-benzo[4,5]cyclohepta[1,2-b]pyridin-5-yl)amino]-6-isopropyl-5,6-dihydro-7H-pyrrolo[3,4-d]pyrimidin-7-one], the IC50 came out at 1400 nM.
